Reference: patent US20240216249A1, “COLLAGEN ACTIVATOR, AND PREPARATION METHOD AND APPLICATION THEREOF” (Hangzhou NUPTEC Rising Bioproducts Incorporation, Ltd., priority 2022, published 2024)

What was measured:
[1] = tested on: blood vessels of embryonated eggs; test: safety test on blood vessels of embryonated eggs; conditions: positive comparative group, 0.05 M SDS, 5 eggs
[2] = tested on: collagen I; test: cell experiments, expression of collagen I; type: cell-based
[3] = tested on: collagen III; test: cell experiments, expression of collagen III; type: cell-based
[4] = tested on: collagen XVII; test: cell experiments, expression of collagen XVII; type: cell-based

## CCCCCCCCCCCCOS(=O)(=O)[O-].[Na+] [SDS, sodium dodecyl sulfate]
[1]
  irritation judgement: non-irritants
[1]; 30 min
  bleeding of blood vessels of embryonated eggs: appear the bleeding phenomenon

## CC1(C)[C@@H](O[C@H]2O[C@H](C(=O)[O-])[C@@H](O)[C@H](O)[C@H]2O[C@@H]2O[C@H](C(=O)[O-])[C@@H](O)[C@H](O)[C@H]2O)CC[C@]2(C)[C@H]3C(=O)C=C4[C@@H]5C[C@@](C)(C(=O)O)CC[C@]5(C)CC[C@@]4(C)[C@]3(C)CC[C@@H]12.[K+].[K+] [dipotassium glycyrrhizinate]
[2]
  content having a promoting effect on the expression of collagen I: 0.001%-0.1
  optimal content (highest expression) for collagen I: 0.01%
[3]
  content having a promoting effect on the expression of collagen III: 0.001%-0.25
  optimal content (highest expression) for collagen III: 0.1%
[4]
  content having a promoting effect on the expression of collagen XVII: 0.001%-0.01
  optimal content (highest expression) for collagen XVII: 0.01%
